{"source": "ChEMBL document CHEMBL1128923", "about": "“A simple synthesis of biaryl phospholipase A2 inhibitors: Probing hydrophobic effects” (Bioorg Med Chem Lett, 1996)", "key": {"[1]": {"target": "T1, Phospholipase A2, membrane associated (Homo sapiens) (UniProt P14555)", "T1 sequence (whole entry)": "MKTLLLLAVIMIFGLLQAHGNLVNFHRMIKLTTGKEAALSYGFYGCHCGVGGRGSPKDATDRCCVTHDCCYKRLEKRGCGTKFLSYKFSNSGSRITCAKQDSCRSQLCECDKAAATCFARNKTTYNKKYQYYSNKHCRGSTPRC", "test": "Compound was evaluated for inhibition of phospholipase A2 (PLA2) isolated from human platelets at a concentration of 10 uM"}, "[2]": {"target": "T1, Phospholipase A2, membrane associated (Homo sapiens)", "test": "Compound was evaluated for inhibition of phospholipase A2 (PLA2) isolated from human platelets at a concentration of 100 uM"}, "[3]": {"target": "T2, Phospholipase A2, membrane associated (Homo sapiens, UniProt P14555)", "T2 sequence (P14555 whole entry)": "T1 sequence (whole entry)", "test": "Compound was evaluated for inhibition of human platelet phospholipase A2 (HP-PLA2)."}, "[4]": {"test_system": "Mus musculus", "test": "Effective dose to reduce mouse ear edema in a phorbol ester induced inflammation assay", "type": "functional"}}, "note": "pIC50: −log10 of the molar value.", "data": [{"smiles": "CC(C)c1ccc2c(c1)CC[C@H]1C[C@](C)(CNC(=O)c3ccccc3-c3ccccc3C(=O)O)CC[C@]21C", "values": [{"measurement": "inhibition", "setting": "[1]", "result": 6, "unit": "%"}, {"measurement": "inhibition", "setting": "[2]", "result": 63, "unit": "%"}]}, {"smiles": "O=C(O)c1ccccc1-c1ccccc1C(=O)Nc1ccc2ccccc2c1", "values": [{"measurement": "inhibition", "setting": "[1]", "result": 2, "unit": "%"}, {"measurement": "inhibition", "setting": "[2]", "result": 8, "unit": "%"}]}, {"smiles": "CCCCCCCCCCOc1ccc(NC(=O)c2ccccc2-c2ccccc2C(=O)O)cc1OCC(=O)O", "values": [{"measurement": "inhibition", "setting": "[1]", "result": 2, "unit": "%"}, {"measurement": "inhibition", "setting": "[2]", "result": 23, "unit": "%"}]}, {"smiles": "O=C(O)c1ccccc1-c1ccccc1C(=O)NC1CCCCCCC1", "values": [{"measurement": "inhibition", "setting": "[1]", "result": 2, "unit": "%"}, {"measurement": "inhibition", "setting": "[2]", "result": 15, "unit": "%"}]}, {"smiles": "CCCCCCCCCCOc1ccc(NC(=O)c2ccccc2-c2ccccc2C(=O)O)cc1OCCCCCCCCCC", "values": [{"measurement": "inhibition", "setting": "[1]", "result": 85, "unit": "%"}, {"measurement": "inhibition", "setting": "[2]", "result": 98, "unit": "%"}]}, {"smiles": "CC1(C)CCC(C)(C)c2cc(NC(=O)c3ccccc3-c3ccccc3C(=O)O)ccc21", "values": [{"measurement": "inhibition", "setting": "[1]", "result": 14, "unit": "%"}, {"measurement": "inhibition", "setting": "[2]", "result": 35, "unit": "%"}]}, {"smiles": "CC1=C(/C=C/C(C)=C/C=C(/C(C)=C/C(=O)O)c2cccc(C(=O)O)c2)C(C)(C)CCC1", "values": [{"measurement": "pIC50", "setting": "[3]", "result": 4.40}, {"measurement": "ED50", "setting": "[4]", "result": 160, "unit": "ug ear-1"}]}, {"smiles": "O=C(O)c1ccccc1-c1ccccc1C(=O)NCCc1c[nH]c2ccc(O)cc12", "values": [{"measurement": "inhibition", "setting": "[1]", "result": 0, "unit": "%"}, {"measurement": "inhibition", "setting": "[2]", "result": 0, "unit": "%"}]}, {"smiles": "CCCCCCCCCCc1ccc(NC(=O)c2ccccc2-c2ccccc2C(=O)O)cc1", "values": [{"measurement": "inhibition", "setting": "[1]", "result": 26, "unit": "%"}, {"measurement": "inhibition", "setting": "[2]", "result": 92, "unit": "%"}]}]}
